Experiment: UV absorption maximum
Format: physicochemical
Method: 108 parts of o-phenylenediamine are introduced into 500 parts of H2SO4 (>96%) and then 800 parts of oleum (65%) are added dropwise, the temperature being maintained at a maximum of 120° C. After 15 min, the mixture is cooled to 70° C. and 120 parts of benzoic acid are added. The mixture is heated for 2 h at 180° C. The mixture is slowly hydrolysed with 2 500 parts of water, the temperature being maintained below 10° C. The precipitate (crystals) is filtered off with suction, the crude product is suspended in 8 parts of water and dissolved with 32% sodium hydroxide solution at pH=7. The solution is stirred with activated carbon until colorless, and thereafter precipitation is induced using 96% H2SO4 by establishing a pH=1-2. 300 parts of 2-phenylbenzimidazole-4,6-disulfonic acid are obtained. The compound has an absorption maximum in the UV-B region at λmax=308 nm.

## O=S(=O)(O)c1cc(S(=O)(=O)O)c2[nH]c(-c3ccccc3)nc2c1 [2-phenylbenzimidazole-4,6-disulfonic acid]
  absorption maximum in the UV-B region, λmax: 308 nm
